Measurements as given in article PMC8047011, “Enantiomers of 2-methylglutamate and 2-methylglutamine selectively impact mouse brain metabolism and behavior” (Scientific Reports, 2021).

Key:
[1] = target: T1, human glutaminase GLS1 (Homo sapiens, UniProt O94925); assay: Catalysis of 2MeGln hydrolysis by GLS1 glutaminase; type: biochemical
T1 sequence (O94925 55-669): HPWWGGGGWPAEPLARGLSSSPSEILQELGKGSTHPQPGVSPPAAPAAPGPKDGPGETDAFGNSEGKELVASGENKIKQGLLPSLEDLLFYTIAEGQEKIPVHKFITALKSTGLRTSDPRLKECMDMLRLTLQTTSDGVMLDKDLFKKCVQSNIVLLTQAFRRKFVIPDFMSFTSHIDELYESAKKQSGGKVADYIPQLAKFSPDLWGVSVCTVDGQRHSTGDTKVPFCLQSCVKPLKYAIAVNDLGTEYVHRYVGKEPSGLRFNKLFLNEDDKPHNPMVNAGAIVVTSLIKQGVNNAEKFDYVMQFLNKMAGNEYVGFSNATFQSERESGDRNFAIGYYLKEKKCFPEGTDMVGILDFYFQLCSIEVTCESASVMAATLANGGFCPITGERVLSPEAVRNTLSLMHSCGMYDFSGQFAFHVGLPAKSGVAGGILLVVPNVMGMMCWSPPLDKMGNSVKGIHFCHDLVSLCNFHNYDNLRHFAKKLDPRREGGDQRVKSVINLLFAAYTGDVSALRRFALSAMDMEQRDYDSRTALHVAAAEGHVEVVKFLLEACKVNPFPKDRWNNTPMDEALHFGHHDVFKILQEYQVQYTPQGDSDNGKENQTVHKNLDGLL
Method: The procedure was adapted from an existing protocol. To a reaction mixture in a 1.5 mL microcentrifuge tube containing 10 mM rac-2MeGln or L-Gln-^13C2 in 100 mM phosphate pH 7.4 buffer made in 20% atom ^18O water, recombinant GLS1 (final concentration: 5 ng/mL) was added. The tubes were incubated in a preheated thermomixer at 37 °C and periodically shaken at 600 rpm (30 s on, 30 s off). 5 μL aliquots were collected in triplicate every 5 min and immediately diluted with 195 μL of cold 60% ACN containing 10 μM Glu-d5 and Gln-d5 as internal standards in a 96 well plate. After collecting all samples, the plate was shaken at 1000 rpm for 5 min at room temperature, and then stored at − 80 °C. Before analysis the plate was thawed and 10 μL aliquots of the extracted reaction mixtures were diluted with 190 μL of 90% acetonitrile.
The quantification of the newly formed 2MeGlu in the presence of the preexisting trace amounts was performed in the following way. Peak area ratio of Glu-^13C2 to Glu-^13C2^18O was calculated in all samples containing Glu-^13C2. The mean ratio value was then applied to calculate the hypothetical peak area of the newly formed 2MeGlu based on the directly measured 2MeGlu-^18O peak area. The ratio of the newly formed 2MeGlu peak area and the total 2MeGlu peak area was applied to calculate the concentration of the newly formed 2MeGlu from the total 2MeGlu concentration determined directly using the calibration curve.

[2] = target: T2, GluN2A (Homo sapiens, UniProt Q12879); assay: FLIPR functional receptor assay, GluN2A; type: cell-based
T2 construct: host or cells: HEK 293
Method: Receptor functional & binding assays
Functional assays of all GABAA, NMDA (GluN2A–GluN2D) and AMPA (GluA2) receptor subunits were performed by SB Drug Discovery as a part of their CNS discovery panel using FLIPR technology. Briefly, receptor-expressing HEK 293 cell lines were incubated in a red membrane potential dye in HEPES:HBSS pH 7.4 buffer and the fluorescence (λex: 488, λex: 510–570) was monitored over time as the test compounds and/or reference compounds were added to the solution. In agonist assay, only test compounds were added. In positive allosteric modulator assay, cells were preincubated with test compounds and then low concentration (approximately EC20) of an appropriate agonist was added. In antagonist assay, cells were preincubated with test compounds and then high concentration (approximately EC80) of an appropriate agonist was added. For GABAA assays, GABA was used as the agonist, picrotoxin was used as the reference antagonist and allopregnanolone was used as the reference positive allosteric modulator (PAM). For NMDA assays, a mixture of glutamate, glycine and CaCl2 was used as the agonist, MK801 was the reference antagonist and pregnenolone sulfate or GNE 9278 were used as reference PAMs. […] All compounds were tested at 7 concentration points in triplicate and EC50/IC50 was determined where applicable. […]

T2 sequence (Q12879 23-1464, other chains not shown): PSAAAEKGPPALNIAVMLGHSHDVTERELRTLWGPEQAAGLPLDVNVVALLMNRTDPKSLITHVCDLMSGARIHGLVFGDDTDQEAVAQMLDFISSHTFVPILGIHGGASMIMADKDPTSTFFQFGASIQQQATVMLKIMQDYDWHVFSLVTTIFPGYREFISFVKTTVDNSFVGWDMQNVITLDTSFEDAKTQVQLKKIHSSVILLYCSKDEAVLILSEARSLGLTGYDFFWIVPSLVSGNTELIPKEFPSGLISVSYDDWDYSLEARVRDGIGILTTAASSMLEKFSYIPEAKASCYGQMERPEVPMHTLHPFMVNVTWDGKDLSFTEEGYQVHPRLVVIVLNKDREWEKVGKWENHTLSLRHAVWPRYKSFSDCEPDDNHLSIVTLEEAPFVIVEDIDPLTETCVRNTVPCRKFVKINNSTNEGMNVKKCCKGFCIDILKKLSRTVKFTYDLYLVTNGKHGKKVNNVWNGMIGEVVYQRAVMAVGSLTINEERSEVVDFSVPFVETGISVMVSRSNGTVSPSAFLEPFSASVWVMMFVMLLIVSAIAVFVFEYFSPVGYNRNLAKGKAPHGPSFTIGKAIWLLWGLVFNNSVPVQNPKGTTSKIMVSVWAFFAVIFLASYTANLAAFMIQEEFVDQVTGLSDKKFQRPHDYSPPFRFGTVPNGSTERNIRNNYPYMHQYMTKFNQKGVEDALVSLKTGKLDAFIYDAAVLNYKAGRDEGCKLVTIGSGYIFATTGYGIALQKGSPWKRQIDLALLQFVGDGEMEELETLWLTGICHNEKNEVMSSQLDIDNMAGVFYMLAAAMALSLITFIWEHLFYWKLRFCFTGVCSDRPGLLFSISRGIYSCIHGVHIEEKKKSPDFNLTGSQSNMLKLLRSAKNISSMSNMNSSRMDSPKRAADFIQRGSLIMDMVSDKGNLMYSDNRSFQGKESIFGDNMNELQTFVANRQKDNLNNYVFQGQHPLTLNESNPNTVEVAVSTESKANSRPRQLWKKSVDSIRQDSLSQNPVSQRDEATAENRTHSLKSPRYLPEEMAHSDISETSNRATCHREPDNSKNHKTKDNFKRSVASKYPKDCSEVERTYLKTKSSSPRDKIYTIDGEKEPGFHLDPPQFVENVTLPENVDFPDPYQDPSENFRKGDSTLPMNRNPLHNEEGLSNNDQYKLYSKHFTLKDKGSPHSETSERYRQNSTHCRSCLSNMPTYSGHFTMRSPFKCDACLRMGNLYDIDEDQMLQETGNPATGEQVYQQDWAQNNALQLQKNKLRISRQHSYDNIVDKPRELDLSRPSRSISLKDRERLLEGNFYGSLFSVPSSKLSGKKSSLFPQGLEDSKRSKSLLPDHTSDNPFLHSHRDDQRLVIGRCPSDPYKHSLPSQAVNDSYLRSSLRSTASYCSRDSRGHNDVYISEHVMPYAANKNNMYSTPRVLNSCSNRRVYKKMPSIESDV

CC(N)(CCC(N)=O)C(=O)O (racemic) [rac-2MeGln, rac-2-methylglutamine]
Substrate for GLS1 [1]: at least one enantiomer of 2MeGln is a substrate for human GLS1, albeit relatively slow | Apparent GLS1 reaction rate, fold lower compared to Gln ([1]; 10 mM substrate): approximately 35 fold | Apparent reaction rate of GLS1 hydrolysis ([1]; 10 mM substrate, 5 ng/mL enzyme, phosphate pH 7.4): 1.9 µM/min

C[C@@](N)(CCC(=O)O)C(=O)O [(R)-2MeGlu, (R)-2-methylglutamic acid]
Activity against GluN2A (in words) [2]: weak antagonist behavior | IC50 ([2]; antagonist mode, top test concentration 100 μM): 69 µM
